Assay results taken from patent US5332731A, “Cephalosporin derivatives” (Meiji Seika Kaisha, Ltd., priority 1989, dated 1994).

How the values were obtained:
[1] = oral toxicity in mice; settings: mouse, in vivo, oral administration, read-out: oral dosage tolerated without exhibiting toxic symptoms
Procedure: The new cephalosporin derivative of this invention may be administered orally at a unit dose of 100 mg to 250 mg to an adult human patient four times a day, for a guideline. However, precise dosage of the new cephalosporin is determinable through preliminary routine experiments, depending on the body weight, ages, sex and other various parameters of patients as well as the nature of the bacterial infections to be treated, and so on.

[2] = recovery in urine of mice after oral administration (paper-disc assay); format: in vivo, mice of ICR-strain; settings: ICR mice, male, 0.5 mg per mouse oral; 0-4 h; molar %, as free carboxylic acid; averaged
Source text: Thus, some tests were made to evaluate the amount or rate of the cephalosporin compound of this invention which can be recovered as the antibacterially active compound from the urine after it was orally given to mice.
The test compounds estimated in this test for their rate of recovery from urine are Compounds Nos. 2, 4, 6, 8, 10, 12, 14, 16, 18, 20, 22, 24, 26, 28, 30, 32, 34, 36 and 38 identified hereinbefore which are the particular examples of the cephalosporin derivative of general formula (I) of this invention and which are in the form of the pivaloyloxymethyl ester.
To mice of ICR-strain (male, 4-weeks-aged, five mice in each group) was orally administered the test compound identified above at a dosage of 0.5 mg per mouse. By the end of 4 hours after the administration of the test compound, all the amounts of the urine excreted by the treated mice were collected together, and the total quantity of the cephalosporin compound of this invention (as the free carboxylic acid form) in the urine so collected was determined according to a paper-disc assay method using Escherichia coli K-12 8236 strain as the assay strain. […]

Structure (SMILES)	NOAEL [1]	Rate of recovery of test compound remaining in urine collected during 0 to 4 hours after oral administration [2]
CO/N=C(\C(=O)NC1C(=O)N2C(C(=O)OCOC(=O)C(C)(C)C)=C(SC3CCOC3)CS[C@H]12)c1csc(N)n1 (stereo partly shown) [Compound No. 4, pivaloyloxymethyl 7-[(Z)-2-(2-aminothiazol-4-yl)-2-methoxyiminoacetamido]-3-(tetrahydrofuran-3-Yl) thio-3-cephem-4-carboxylate]	3000 mg/kg	–
CO/N=C(\C(=O)NC1C(=O)N2C(C(=O)OCOC(=O)C(C)(C)C)=C(SCC3CCOC3)CS[C@H]12)c1csc(N)n1 (stereo partly shown) [Compound No. 28, pivaloyloxymethyl 7-[(Z)-2-(2-aminothiazol-4-yl)-2-methoxyiminoacetamido]-3-(tetrahydrofuran-3-yl) methylthio-3-cephem-4-carboxylate]	3000 mg/kg	–
CO/N=C(\C(=O)NC1C(=O)N2C(C(=O)OCOC(=O)C(C)(C)C)=C(SCC3COCO3)CS[C@H]12)c1csc(N)n1 (stereo partly shown) [Compound No. 30, pivaloyloxymethyl 7-[(Z)-2-(2-aminothiazol-4-yl)-2-methoxyiminoacetamido]-3-(1,3-dioxolan-4-yl) methylthio-3-cephem-4-carboxylate]	3000 mg/kg	–
CC(C)(C)C(=O)OCOC(=O)C1=C(SCC2CCOCC2)CS[C@@H]2C(NC(=O)/C(=N\O)c3csc(N)n3)C(=O)N12 (stereo partly shown) [Compound No. 38, pivaloyloxymethyl 7-[(Z)-2-(2-aminothiazol-4-yl)-2-hydroxyiminoacetamido]-3-(tetrahydropyran-4-yl) methylthio-3-cephem-4-carboxylate]	–	Less than detectable amount
